Laboratory results taken from patent US9296723B2, “NAMPT inhibitors” (AbbVie Inc., priority 2012, dated 2016).

Key:
[1] = target: T1, NAMPT (Homo sapiens, UniProt P43490); assay: Time-Resolved Fluorescence Resonance Energy Transfer (TR-FRET) Binding Assay of NAMPT; conditions: 6.8 nM NAMPT, 200 nM probe, equilibrated 3 hours, no substrates
Experimental: Determination of the utility of compounds having Formula (I) as binders to and inhibitors of NAMPT was performed using Time-Resolved Fluorescence Resonance Energy Transfer (TR-FRET) binding assays.
Time-Resolved Fluorescence Resonance Energy Transfer (TR-FRET) Binding Assay of NAMPT
Six L were transferred to 384-well low-volume plates ([…] #3673). To this, 12 L of a 1.5× solution containing enzyme, probe and antibody were added. […] Reactions were equilibrated at room temperature for 3 hours prior to reading on an Envision multi-label plate reader (Perkin Elmer; Ex=337 nm, Em=520 and 495 nm). Time-resolved FRET ratios (Em520/Em495) were normalized to controls, plotted as a function of compound concentration and fit with the four-parameter logistic equation to determine IC50s.

[2] = tested on: PC3 cells; assay: NAMPT Cell Proliferation Assay (Cell Titer Glo); assay type: cell-based; conditions: Homo sapiens, PC-3, 120 h, incubated 5 days, cell viability
Experimental: NAMPT Cell Proliferation Assay
PC3 cells were seeded in 96-well black plates (Corning #3904) at 500 cells/well in 90 µl of RPMI media containing 10% heat-inactivated FBS and incubated overnight at 37° C. and 5% CO2 to allow cells to attach to wells. The following day, test compounds were serially diluted in neat DMSO to 1000× final concentrations prior to dilution with RPMI media to 10× and 1% DMSO. Ten L of the 10× compounds were then transferred to wells containing cells to produce a dose response of 10-fold dilutions from […]. Cells were incubated for 5 days at 37° C. and 5% CO2, then cell viability was measured using Cell Titer Glo reagent (Promega #G7571). Percent inhibition values were calculated and fitted to a sigmoidal dose response curves using Assay Explorer software to determine IC50s.

[3] = target: T1, NAMPT; assay: TR-FRET Binding Assay of NAMPT with PRPP; conditions: 2 nM NAMPT, 2 nM probe, 200 µM PRPP and 2.5 mM ATP, equilibrated 16 hours
Experimental: Time-Resolved Fluorescence Resonance Energy Transfer (TR-FRET) Binding Assay of NAMPT with PRPP
Compound handling and data processing were identical to the assay in the absence of substrates (above). Final concentrations were 1× assay buffer, 2% DMSO, 2 nM NAMPT, 2 nM probe, 1 nM Tb-anti-His antibody (Invitrogen #PV5895), 200 µM PRPP and 2.5 mM ATP. Reactions were equilibrated for 16 hours prior to measurement to allow for potential enzymatic modification of test compounds.

T1 sequence (P43490 whole entry): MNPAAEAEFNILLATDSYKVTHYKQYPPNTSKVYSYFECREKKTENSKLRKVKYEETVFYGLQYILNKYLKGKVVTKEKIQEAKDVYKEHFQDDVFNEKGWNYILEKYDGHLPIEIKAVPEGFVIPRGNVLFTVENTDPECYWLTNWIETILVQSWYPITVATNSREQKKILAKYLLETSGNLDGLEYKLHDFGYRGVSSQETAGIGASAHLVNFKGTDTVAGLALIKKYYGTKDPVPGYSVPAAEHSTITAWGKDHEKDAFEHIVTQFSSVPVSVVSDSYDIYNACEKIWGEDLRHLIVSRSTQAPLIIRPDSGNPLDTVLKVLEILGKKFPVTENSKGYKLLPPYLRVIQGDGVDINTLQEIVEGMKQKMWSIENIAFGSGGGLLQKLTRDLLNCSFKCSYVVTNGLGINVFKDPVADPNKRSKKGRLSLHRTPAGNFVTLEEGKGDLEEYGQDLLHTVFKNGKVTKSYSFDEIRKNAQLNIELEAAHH

| IC50 [1] [nM] | IC50 [2] [nM] | IC50 [3] [nM] | SMILES |
| --- | --- | --- | --- |
| 26.3 | 36.5 | – | CCCn1cc(-c2ccc(NC(=O)N3CC(c4cccnc4)C3)cc2)cn1 [Example 158, N-[4-(1-propyl-1H-pyrazol-4-yl)phenyl]-3-(pyridin-3-yl)azetidine-1-carboxamide] |
| 128 | – | 0.356 | CC1CC1C(=O)N1CC(c2ccc(NC(=O)N3CC(c4cccnc4)C3)cc2)C1 (centres unmarked) [Example 199, N-(4-{1-[(2-methylcyclopropyl)carbonyl]azetidin-3-yl}phenyl)-3-(pyridin-3-yl)azetidine-1-carboxamide] |
| 43.2 | – | 0.313 | CC(C)CCC(=O)N1CC(c2ccc(NC(=O)N3CC(c4cccnc4)C3)cc2)C1 [Example 201, N-{4-[1-(4-methylpentanoyl)azetidin-3-yl]phenyl}-3-(pyridin-3-yl)azetidine-1-carboxamide] |
| 250 | – | 0.427 | CCOCCC(=O)N1CC(c2ccc(NC(=O)N3CC(c4cccnc4)C3)cc2)C1 [Example 203, N-{4-[1-(3-ethoxypropanoyl)azetidin-3-yl]phenyl}-3-(pyridin-3-yl)azetidine-1-carboxamide] |
| 42.6 | – | 0.242 | CC(C)(C)CC(=O)N1CC(c2ccc(NC(=O)N3CC(c4cccnc4)C3)cc2)C1 [Example 205, N-{4-[1-(3,3-dimethylbutanoyl)azetidin-3-yl]phenyl}-3-(pyridin-3-yl)azetidine-1-carboxamide] |
| 451 | – | 0.37 | CCOCC(=O)N1CC(c2ccc(NC(=O)N3CC(c4cccnc4)C3)cc2)C1 [Example 207, N-{4-[1-(ethoxyacetyl)azetidin-3-yl]phenyl}-3-(pyridin-3-yl)azetidine-1-carboxamide] |
| 24 | – | 0.694 | CC(=O)N[C@@H](CC(C)C)C(=O)N1CC(c2ccc(NC(=O)N3CC(c4cccnc4)C3)cc2)C1 [Example 209, N-{4-[1-(N-acetyl-L-leucyl)azetidin-3-yl]phenyl}-3-(pyridin-3-yl)azetidine-1-carboxamide] |
| 55.9 | – | 0.341 | O=C(Nc1ccc(C2CN(C(=O)C3CCCCC3)C2)cc1)N1CC(c2cccnc2)C1 [Example 211, N-{4-[1-(cyclohexylcarbonyl)azetidin-3-yl]phenyl}-3-(pyridin-3-yl)azetidine-1-carboxamide] |
| 87.3 | – | 0.352 | O=C(CCC(F)(F)F)N1CC(c2ccc(NC(=O)N3CC(c4cccnc4)C3)cc2)C1 [Example 213, 3-(pyridin-3-yl)-N-{4-[1-(4,4,4-trifluorobutanoyl)azetidin-3-yl]phenyl}azetidine-1-carboxamide] |
| 27.4 | – | 0.294 | CC1(C(=O)N2CC(c3ccc(NC(=O)N4CC(c5cccnc5)C4)cc3)C2)CCCCC1 [Example 215, N-(4-{1-[(1-methylcyclohexyl)carbonyl]azetidin-3-yl}phenyl)-3-(pyridin-3-yl)azetidine-1-carboxamide] |
| 278 | – | 0.32 | CC(=O)N1CC(c2ccc(NC(=O)N3CC(c4cccnc4)C3)cc2)C1 [Example 217, N-[4-(1-acetylazetidin-3-yl)phenyl]-3-(pyridin-3-yl)azetidine-1-carboxamide] |
| 317 | 617 | – | O=C(Nc1ccc(C2CN(CC3CCCC3)C2)cc1)N1CC(c2cccnc2)C1 [Example 245, N-{4-[1-(cyclopentylmethyl)azetidin-3-yl]phenyl}-3-(pyridin-3-yl)azetidine-1-carboxamide] |
| 193 | 541 | – | CCCC(C)CN1CC(c2ccc(NC(=O)N3CC(c4cccnc4)C3)cc2)C1 (centres unmarked) [Example 249, N-{4-[1-(2-methylpentyl)azetidin-3-yl]phenyl}-3-(pyridin-3-yl)azetidine-1-carboxamide] |
| 191 | 691 | – | O=C(CN1CCCC1)N1CCC(c2ccc(NC(=O)N3CC(c4cccnc4)C3)cc2)C1 (centres unmarked) [Example 265, 3-(pyridin-3-yl)-N-{4-[1-(pyrrolidin-1-ylacetyl)pyrrolidin-3-yl]phenyl}azetidine-1-carboxamide] |
| 96.2 | 207 | – | CN(C)CCC(=O)N1CCC(c2ccc(NC(=O)N3CC(c4cccnc4)C3)cc2)C1 (stereo not drawn) [Example 266, N-{4-[1-(N,N-dimethyl-beta-alanyl)pyrrolidin-3-yl]phenyl}-3-(pyridin-3-yl)azetidine-1-carboxamide] |
| 20.1 | 16.7 | – | CC1(C(=O)N2CCC(c3ccc(NC(=O)N4CC(c5cccnc5)C4)cc3)C2)CC1 (centres unmarked) [Example 269, N-(4-{1-[(1-methylcyclopropyl)carbonyl]pyrrolidin-3-yl}phenyl)-3-(pyridin-3-yl)azetidine-1-carboxamide] |
| 203 | 7270 | – | O=C1CC[C@@H](C(=O)N2CCC(c3ccc(NC(=O)N4CC(c5cccnc5)C4)cc3)C2)N1 (stereo partly drawn) [Example 273, N-{4-[1-(5-oxo-L-prolyl)pyrrolidin-3-yl]phenyl}-3-(pyridin-3-yl)azetidine-1-carboxamide] |
| 76.7 | 63.1 | – | CC(=O)N1CCC(c2ccc(NC(=O)N3CC(c4cccnc4)C3)cc2)C1 (centres unmarked) [Example 277, N-[4-(1-acetylpyrrolidin-3-yl)phenyl]-3-(pyridin-3-yl)azetidine-1-carboxamide] |
| 101 | 114 | – | COCCOCC(=O)N1CCC(c2ccc(NC(=O)N3CC(c4cccnc4)C3)cc2)C1 (centres unmarked) [Example 280, N-(4-{1-[(2-methoxyethoxy)acetyl]pyrrolidin-3-yl}phenyl)-3-(pyridin-3-yl)azetidine-1-carboxamide] |
| 65.6 | 125 | – | O=C(CCN1CCOCC1)N1CCC(c2ccc(NC(=O)N3CC(c4cccnc4)C3)cc2)C1 (centres unmarked) [Example 281, N-(4-{1-[3-(morpholin-4-yl)propanoyl]pyrrolidin-3-yl}phenyl)-3-(pyridin-3-yl)azetidine-1-carboxamide] |
| 17.2 | 26.5 | – | Cn1cccc1C(=O)N1CCC(c2ccc(NC(=O)N3CC(c4cccnc4)C3)cc2)C1 (centres unmarked) [Example 285, N-(4-{1-[(1-methyl-1H-pyrrol-2-yl)carbonyl]pyrrolidin-3-yl}phenyl)-3-(pyridin-3-yl)azetidine-1-carboxamide] |
| 9.76 | 7.66 | – | O=C(Nc1ccc(C2CCN(C(=O)c3ccco3)C2)cc1)N1CC(c2cccnc2)C1 (centres unmarked) [Example 286, N-{4-[1-(furan-2-ylcarbonyl)pyrrolidin-3-yl]phenyl}-3-(pyridin-3-yl)azetidine-1-carboxamide] |
| 35.2 | 11.2 | – | CCC(C)CC(=O)N1CC[C@@H](Oc2ccc(NC(=O)N3CC(c4cccnc4)C3)cc2)C1 (stereo partly drawn) [Example 298, N-(4-{[(3R)-1-(3-methylpentanoyl)pyrrolidin-3-yl]oxy}phenyl)-3-(pyridin-3-yl)azetidine-1-carboxamide] |
| 507 | 298 | – | CN(C)CCC(=O)N1CC[C@@H](Oc2ccc(NC(=O)N3CC(c4cccnc4)C3)cc2)C1 [Example 306, N-(4-{[(3R)-1-(N,N-dimethyl-beta-alanyl)pyrrolidin-3-yl]oxy}phenyl)-3-(pyridin-3-yl)azetidine-1-carboxamide] |
| 48.7 | 54.2 | – | CC(C)CCC(=O)N1CC[C@@H](Oc2ccc(NC(=O)N3CC(c4cccnc4)C3)cc2)C1 [Example 315, N-(4-{[(3R)-1-(4-methylpentanoyl)pyrrolidin-3-yl]oxy}phenyl)-3-(pyridin-3-yl)azetidine-1-carboxamide] |
| 13.6 | 17.3 | – | CC1(C(=O)N2CC[C@@H](Oc3ccc(NC(=O)N4CC(c5cccnc5)C4)cc3)C2)CCCCC1 [Example 316, N-[4-({(3R)-1-[(1-methylcyclohexyl)carbonyl]pyrrolidin-3-yl}oxy)phenyl]-3-(pyridin-3-yl)azetidine-1-carboxamide] |
| 34.9 | 12.5 | – | CC(C)(C)C(=O)N1CC[C@@H](Oc2ccc(NC(=O)N3CC(c4cccnc4)C3)cc2)C1 [Example 322, N-(4-{[(3R)-1-(2,2-dimethylpropanoyl)pyrrolidin-3-yl]oxy}phenyl)-3-(pyridin-3-yl)azetidine-1-carboxamide] |
| 450 | 189 | – | O=C(CCN1CCCCC1)N1CC[C@@H](Oc2ccc(NC(=O)N3CC(c4cccnc4)C3)cc2)C1 [Example 327, N-[4-({(3R)-1-[3-(piperidin-1-yl)propanoyl]pyrrolidin-3-yl}oxy)phenyl]-3-(pyridin-3-yl)azetidine-1-carboxamide] |
